Test results from US12338236B2, “Benzoisothiazole and benzoisoxazole compounds for the treatment of mental disorders” (SUVEN LIFE SCIENCES LIMITED, priority 2022, dated 2025).
Where a name gives a salt, the structure may show the parent alone.

System: amphetamine-induced hyperlocomotion
Assay: Amphetamine-induced open field assay
Assay type: in vivo, Male Wistar rats
Conditions: rats, 3, 10, 30 mg/kg, p.o., vs Amphetamine (2.5 mg/kg, i.p.) treated group
Experimental: Example-51: Amphetamine-Induced Open Filed Assay
Male Wistar rats of 230-250 g weight were used. The body weights of the rats were recorded. Rats were randomized according to their body weights. Animals were brought to the laboratory 1 h prior to acclimatizing to the laboratory conditions. The open field is black colored arena of 51×51×51 cm enclosed by black plastic walls of same dimensions. Rats were habituated to the open field arena for a period of 15 min. Animals were administered respective treatments (Vehicle or Example-2) 60 min prior to the trial. After 30 min, animals were challenged with amphetamine (2.5 mg/kg, i.p.) or vehicle. Then the animals were placed in open field arenas and distance traveled by […] was tracked for 15 min using Videomot software. Data was analyzed using GraphPad prism.

Cc1nnc(-c2csc(OCCCN3CCN(c4nsc5ccccc45)CC3)n2)o1 [Example-2, 3-(4-{3-[4-(5-Methyl-[1,3,4]oxadiazol-2-yl)-thiazol-2-yloxy]-propyl}-piperazin-1-yl)-benzo[d]isothiazole oxalate]
Effect on amphetamine-induced locomotion (distance traveled): significant decrease in locomotion
